# Laboratory results from patent US6228861A, “Dihydropyrimidines and uses thereof” (Synaptic Pharmaceutical Corporation, priority 1998, dated 2001).
# Where two headings read alike, the source gives them in different places.
# Assays:
# [1] = cited from earlier work
# [2] = literature, BPH patients; cited from earlier work
# [3] = biological target: T1, α1D Human Adrenergic Receptor (Homo sapiens, UniProt P25100); assay: [3H]prazosin radioligand binding, cloned human α1D receptor; conditions: LM(tk-) membranes, [3H]prazosin 0.5 nM, 37° C., 20 min
# T1 construct: The entire coding region of α1D (1719 bp); expressed in transfected cells; membranes
# T1 sequence (P25100 1-572): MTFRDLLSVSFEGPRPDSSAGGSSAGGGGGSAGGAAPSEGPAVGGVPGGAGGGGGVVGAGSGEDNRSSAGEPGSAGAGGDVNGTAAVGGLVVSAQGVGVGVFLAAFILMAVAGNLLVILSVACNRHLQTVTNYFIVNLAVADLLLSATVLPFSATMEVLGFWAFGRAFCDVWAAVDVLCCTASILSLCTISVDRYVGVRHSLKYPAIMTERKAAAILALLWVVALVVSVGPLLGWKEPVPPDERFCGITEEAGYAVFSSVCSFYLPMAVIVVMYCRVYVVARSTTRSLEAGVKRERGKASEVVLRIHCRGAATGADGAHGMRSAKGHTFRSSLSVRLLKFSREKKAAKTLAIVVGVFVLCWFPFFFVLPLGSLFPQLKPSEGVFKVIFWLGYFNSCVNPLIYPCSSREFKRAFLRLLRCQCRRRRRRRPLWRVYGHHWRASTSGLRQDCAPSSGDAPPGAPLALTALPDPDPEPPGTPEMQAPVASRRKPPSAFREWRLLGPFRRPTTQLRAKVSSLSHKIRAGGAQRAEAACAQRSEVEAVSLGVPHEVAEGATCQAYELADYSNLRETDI
# Description: (§1) Binding affinities were measured for selected compounds of the invention at six cloned human alpha-1 and alpha-2 receptor subtypes, as well as at the L-type calcium channel. The protocols for these experiments are given below.
# (§2) The activity of compounds at the different human receptors was determined in vitro using cultured cell lines that selectively express the receptor of interest. These cell lines were prepared by transfecting the cloned cDNA or cloned genomic DNA or constructs containing both genomic DNA and cDNA encoding the human α-adrenergic receptors as follows:
# The entire coding region of α1D (1719 bp), including 150 base pairs of 5' untranslated sequence t5' UT) and 300 bp of 3' untranslated sequence (3' UT), was cloned into the BamHI and ClaI sites of the polylinker-modified eukaryotic expression vector pCEXV-3, called EXJ.HR. […]
# (§3) Transfected cells from culture flasks were scraped into 5 ml of 5 mM Tris-HCl, 5 mM EDTA, pH 7.5, and lysed by sonication. […] Nonspecific binding was determined in the presence of 10 μM phentolamine. […] Inhibition experiments, routinely consisting of 7 concentrations of the tested compounds, were analyzed using a non-linear regression curve-fitting computer program to obtain Ki values.
# [4] = biological target: T2, α1B Human Adrenergic Receptor (Homo sapiens, UniProt P35368); assay: [3H]prazosin radioligand binding, cloned human α1B receptor; conditions: LM(tk-) membranes, [3H]prazosin 0.5 nM, 37° C., 20 min
# T2 construct: The entire coding region of α1B (1563 bp); expressed in transfected cells; membranes
# T2 sequence (P35368 1-520): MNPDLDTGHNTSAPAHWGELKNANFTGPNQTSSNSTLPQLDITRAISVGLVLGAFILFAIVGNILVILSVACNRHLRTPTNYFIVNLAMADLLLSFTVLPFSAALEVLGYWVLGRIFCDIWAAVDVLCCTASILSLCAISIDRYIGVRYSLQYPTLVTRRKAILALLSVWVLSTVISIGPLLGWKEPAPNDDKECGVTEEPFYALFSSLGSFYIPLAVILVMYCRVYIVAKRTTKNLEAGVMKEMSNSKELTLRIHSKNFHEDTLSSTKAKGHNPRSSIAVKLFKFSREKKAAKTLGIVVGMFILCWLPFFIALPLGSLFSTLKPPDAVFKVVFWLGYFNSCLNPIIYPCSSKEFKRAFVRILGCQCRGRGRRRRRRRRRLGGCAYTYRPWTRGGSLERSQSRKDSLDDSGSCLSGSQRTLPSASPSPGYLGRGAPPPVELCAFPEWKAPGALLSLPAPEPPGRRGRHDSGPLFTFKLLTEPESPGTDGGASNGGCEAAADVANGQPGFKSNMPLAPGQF
# Description: as §1, §2
# (§4) The construct involved the ligation of partial overlapping human lymphocyte genomic and hippocampal cDNA clones: 5' sequence were contained on a 1.2 kb SmaI-XhoI genomic fragment (the vector-derived -BamHI site was used for subcloning instead of the internal insert-derived SmaI site) and 3' sequences were contained on an 1.3 kb XhoI-ClaI cDNA fragment (the ClaI site was from the vector polylinker). […]
# as §3
# [5] = biological target: T3, α1A Human Adrenergic Receptor (Homo sapiens, UniProt P35348); assay: [3H]prazosin radioligand binding, cloned human α1A receptor; conditions: LM(tk-) membranes, [3H]prazosin 0.5 nM, 37° C., 20 min
# T3 construct: The entire coding region of α1A (1401 bp); expressed in transfected cells; membranes
# T3 sequence (P35348 1-466): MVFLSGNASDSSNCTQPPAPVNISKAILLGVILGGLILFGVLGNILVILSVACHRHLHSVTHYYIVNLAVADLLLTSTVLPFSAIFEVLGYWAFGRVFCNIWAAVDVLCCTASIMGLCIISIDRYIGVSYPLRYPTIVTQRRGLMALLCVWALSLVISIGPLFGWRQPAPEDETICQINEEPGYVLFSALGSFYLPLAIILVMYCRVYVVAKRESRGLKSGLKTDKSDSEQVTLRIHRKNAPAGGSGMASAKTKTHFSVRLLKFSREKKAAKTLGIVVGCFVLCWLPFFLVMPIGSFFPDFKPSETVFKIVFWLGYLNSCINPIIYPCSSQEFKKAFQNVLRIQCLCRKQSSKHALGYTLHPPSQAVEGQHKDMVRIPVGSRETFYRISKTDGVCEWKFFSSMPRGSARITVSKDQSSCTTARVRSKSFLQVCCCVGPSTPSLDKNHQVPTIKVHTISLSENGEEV
# Description: as §1, §2, §4
# Transfected cells from culture flasks were scraped into 5 ml of 5 mM Tris-HCl, 5 mM EDTA, pH 7.5, and lysed by sonication. […] Nonspecific binding was determined in the presence of 10 μM phentolamine. […]
Compound,side effects ([1]; literature),usefulness in BPH [2],other results
Clc1cccc(Cl)c1N=C1NCCN1 [clonidine],dry mouth and sedation,–,–
COc1cc2nc(N3CCN(C(=O)c4ccco4)CC3)nc(N)c2cc1OC [prazosin],–,useful for treating BPH,side effects ([1]; in vivo): untoward side effects
COc1cc2nc(N3CCN(C(=O)C4CCCO4)CC3)nc(N)c2cc1OC (stereo not shown) [terazosin],untoward side effects,useful for treating BPH,–
"COCC1=C(C(C)=O)C(c2cc(F)c(F)c(F)c2)N(C(=O)NCCN[C@H]2CC[C@](C#N)(c3ccccc3)CC2)C(=O)N1.Cl (stereo partly drawn) [Example 2, cis-6-(3,4,5-Trifluorophenyl)-1-{N-[2-(4-cyano-4 phenyl-cyclohexylamino)ethyl]}-carboxamido-5-acetyl-4-methoxymethyl-2-oxo-1,2,3,6 - tetrahydropyrimidine hydrochloride]",–,–,hα1D pKi [3]: 7.05; hα1B pKi [4]: 7.76; hα1A pKi [5]: 9.51
CC(COc1ccccc1)N(CCCl)Cc1ccccc1 (stereo not shown) [phenoxybenzamine],significant side effects such as dizziness and asthenia,useful in relieving the symptoms of BPH,–
